The source made the active and inactive calls. The rule behind the calls is not given here.
Tests used:
[1] = target: T1, Alpha-1D adrenergic receptor (Homo sapiens, UniProt P25100); assay: Binding affinity to human alpha1D-adrenoceptor
T1 sequence (P25100 whole entry): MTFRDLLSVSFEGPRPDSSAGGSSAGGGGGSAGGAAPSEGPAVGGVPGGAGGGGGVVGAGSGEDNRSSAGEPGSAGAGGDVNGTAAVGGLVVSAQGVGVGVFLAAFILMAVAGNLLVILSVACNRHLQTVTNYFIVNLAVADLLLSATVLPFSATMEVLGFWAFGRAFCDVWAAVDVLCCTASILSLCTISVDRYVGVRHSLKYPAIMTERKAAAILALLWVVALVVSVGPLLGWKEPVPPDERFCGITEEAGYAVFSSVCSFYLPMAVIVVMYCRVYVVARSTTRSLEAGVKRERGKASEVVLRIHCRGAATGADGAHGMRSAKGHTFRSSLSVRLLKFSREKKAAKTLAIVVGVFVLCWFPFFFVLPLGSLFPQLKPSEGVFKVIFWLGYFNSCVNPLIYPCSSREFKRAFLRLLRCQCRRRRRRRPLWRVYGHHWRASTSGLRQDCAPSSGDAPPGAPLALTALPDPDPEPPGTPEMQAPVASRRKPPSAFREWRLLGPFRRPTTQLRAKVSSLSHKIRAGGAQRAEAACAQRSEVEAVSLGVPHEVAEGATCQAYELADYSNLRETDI

[2] = target: T2, Alpha-2C adrenergic receptor (Homo sapiens, UniProt P18825); assay: Agonist activity at alpha2C-adrenoceptor (unknown origin) expressed in CHO-alpha2C-PKAcatEGFP cells assessed as increase in intracellular calcium level measured after 15 mins incubation by Micro automated microscopy; assay type: functional, cell-based
T2 sequence (P18825 whole entry): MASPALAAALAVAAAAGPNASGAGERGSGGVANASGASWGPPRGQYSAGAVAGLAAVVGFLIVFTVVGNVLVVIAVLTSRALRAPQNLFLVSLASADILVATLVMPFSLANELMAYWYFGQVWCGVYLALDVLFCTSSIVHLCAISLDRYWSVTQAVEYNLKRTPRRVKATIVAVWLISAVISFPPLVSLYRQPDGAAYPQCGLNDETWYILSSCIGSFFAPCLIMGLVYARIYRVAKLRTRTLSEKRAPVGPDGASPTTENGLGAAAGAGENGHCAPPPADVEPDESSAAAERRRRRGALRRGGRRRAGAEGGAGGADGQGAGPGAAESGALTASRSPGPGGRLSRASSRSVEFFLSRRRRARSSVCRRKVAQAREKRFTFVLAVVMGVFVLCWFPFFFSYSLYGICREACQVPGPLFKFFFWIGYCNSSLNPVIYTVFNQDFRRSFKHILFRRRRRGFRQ

[3] = Metabolic stability in mouse liver microsomes assessed as elimination half life; assay type: ADME, Microsome
[4] = target: T3, Alpha-2B adrenergic receptor (Homo sapiens, UniProt P18089); assay: Agonist activity at human alpha2B-adrenoceptor
T3 sequence (P18089 whole entry): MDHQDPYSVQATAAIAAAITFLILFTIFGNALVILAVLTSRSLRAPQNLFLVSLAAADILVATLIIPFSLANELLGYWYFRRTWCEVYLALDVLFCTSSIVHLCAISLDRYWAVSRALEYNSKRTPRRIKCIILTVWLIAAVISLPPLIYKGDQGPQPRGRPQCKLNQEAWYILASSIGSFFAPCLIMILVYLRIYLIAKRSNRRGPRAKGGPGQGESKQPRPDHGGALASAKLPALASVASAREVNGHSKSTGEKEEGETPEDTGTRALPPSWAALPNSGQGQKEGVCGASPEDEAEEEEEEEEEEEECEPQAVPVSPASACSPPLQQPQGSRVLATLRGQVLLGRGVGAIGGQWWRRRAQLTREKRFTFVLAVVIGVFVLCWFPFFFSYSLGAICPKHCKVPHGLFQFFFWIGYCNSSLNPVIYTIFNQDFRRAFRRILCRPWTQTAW

[5] = target: T4, Alpha-1A adrenergic receptor (Homo sapiens, UniProt P35348)
T4 sequence (P35348 whole entry): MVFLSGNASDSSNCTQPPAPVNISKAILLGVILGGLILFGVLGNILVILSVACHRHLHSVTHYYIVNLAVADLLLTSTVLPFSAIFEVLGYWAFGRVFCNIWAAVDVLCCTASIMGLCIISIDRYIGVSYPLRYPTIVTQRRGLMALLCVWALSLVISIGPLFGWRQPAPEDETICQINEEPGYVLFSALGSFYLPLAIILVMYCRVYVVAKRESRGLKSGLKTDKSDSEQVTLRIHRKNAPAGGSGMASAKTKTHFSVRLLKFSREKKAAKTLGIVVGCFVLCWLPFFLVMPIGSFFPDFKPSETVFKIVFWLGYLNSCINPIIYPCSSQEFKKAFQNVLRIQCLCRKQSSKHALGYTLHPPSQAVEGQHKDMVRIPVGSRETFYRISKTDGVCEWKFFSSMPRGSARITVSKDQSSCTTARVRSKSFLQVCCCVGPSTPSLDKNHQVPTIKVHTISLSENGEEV
Description: Binding affinity to human alpha1A-adrenoceptor

[6] = Metabolic stability in mouse liver microsomes assessed as intrinsic clearance; assay type: ADME, Microsome; details: read-out: CLH
[7] = target: T5, Alpha-1B adrenergic receptor (Homo sapiens, UniProt P35368); assay: Binding affinity to human alpha1B-adrenoceptor
T5 sequence (P35368 whole entry): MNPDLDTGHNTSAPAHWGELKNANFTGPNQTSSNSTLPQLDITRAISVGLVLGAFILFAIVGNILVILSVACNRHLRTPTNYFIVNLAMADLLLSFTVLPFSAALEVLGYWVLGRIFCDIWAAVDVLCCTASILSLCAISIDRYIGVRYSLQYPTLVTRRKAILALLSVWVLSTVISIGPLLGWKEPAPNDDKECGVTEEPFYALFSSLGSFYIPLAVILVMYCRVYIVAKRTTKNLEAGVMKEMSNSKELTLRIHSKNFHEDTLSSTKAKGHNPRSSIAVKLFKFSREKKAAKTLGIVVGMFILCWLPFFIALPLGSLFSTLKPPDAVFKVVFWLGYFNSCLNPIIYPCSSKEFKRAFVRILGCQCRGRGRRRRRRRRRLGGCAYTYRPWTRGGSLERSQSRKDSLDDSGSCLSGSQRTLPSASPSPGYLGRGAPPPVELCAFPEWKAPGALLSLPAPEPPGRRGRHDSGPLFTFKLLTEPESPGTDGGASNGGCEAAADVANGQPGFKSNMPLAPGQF

[8] = target: T2, Alpha-2C adrenergic receptor; assay: Agonist activity at human alpha2C-adrenoceptor
[9] = target: T4, Alpha-1A adrenergic receptor; assay: Agonist activity at alpha1A-adrenoceptor (unknown origin) expressed in HEK293T cells assessed as fluorescence intensity measured after 30 mins by IP-one homogeneous time-resolved fluorescence assay; assay type: functional, cell-based
[10] = target: T3, Alpha-2B adrenergic receptor; assay: Agonist activity at alpha2B-adrenoceptor (unknown origin) expressed in U2OS-EGFP-NFAT2-alpha2B-AR cells assessed as increase in intracellular calcium level measured after 15 mins incubation by Micro automated microscopy; assay type: functional, cell-based
[11] = target: T6, Adrenergic receptor alpha-1 (Homo sapiens, UniProt P35348+P25100+P35368); assay: Binding affinity to alpha1-adrenoceptor (unknown origin); assay type: protein assay
T6 sequence (P35348 whole entry): T4 sequence (P35348 whole entry)
T6 sequence (P25100 whole entry): T1 sequence (P25100 whole entry)
T6 sequence (P35368 whole entry): T5 sequence (P35368 whole entry)

[12] = target: T7, Adrenergic receptor alpha-2 (Homo sapiens, UniProt P08913+P18825+P18089); assay: Binding affinity to alpha2-adrenoceptor (unknown origin); assay type: protein assay
T7 sequence (P08913 whole entry): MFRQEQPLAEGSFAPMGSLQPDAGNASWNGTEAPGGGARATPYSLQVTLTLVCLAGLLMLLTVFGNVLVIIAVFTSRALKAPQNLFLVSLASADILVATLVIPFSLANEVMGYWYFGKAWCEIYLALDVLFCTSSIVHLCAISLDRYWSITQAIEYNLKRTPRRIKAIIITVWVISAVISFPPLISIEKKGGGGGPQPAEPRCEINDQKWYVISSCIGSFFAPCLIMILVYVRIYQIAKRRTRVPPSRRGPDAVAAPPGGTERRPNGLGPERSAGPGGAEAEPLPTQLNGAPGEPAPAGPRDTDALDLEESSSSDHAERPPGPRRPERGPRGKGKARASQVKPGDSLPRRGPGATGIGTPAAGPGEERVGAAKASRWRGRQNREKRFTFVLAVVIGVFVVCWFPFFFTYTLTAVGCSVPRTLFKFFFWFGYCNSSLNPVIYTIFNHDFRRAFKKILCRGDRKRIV
T7 sequence (P18825 whole entry): T2 sequence (P18825 whole entry)
T7 sequence (P18089 whole entry): T3 sequence (P18089 whole entry)

[13] = tested on: Mus musculus; assay: Hypnotic activity in C57BL/6 mouse assessed as increase in loss of righting reflex (LORR) in presence of BRL44408 alpha2A-adrenoceptor antagonist at 0.60 mg/kg, ip; assay type: functional, organism-based; details: dose 0.6 mg/kg
[14] = tested on: Mus musculus; assay: Hypnotic activity in C57BL/6 mouse assessed as increase in loss of righting reflex (LORR) in presence of JP1302 alpha2C-adrenoceptor antagonist at 0.60 mg/kg, ip; assay type: functional, organism-based; details: dose 0.6 mg/kg
[15] = tested on: Mus musculus; assay: Hypnotic activity in C57BL/6 mouse assessed as increase in loss of righting reflex (LORR) in presence of atipamezole alpha2-adrenoceptor antagonist at 0.60 mg/kg, ip; assay type: functional, organism-based; details: dose 0.6 mg/kg
[16] = tested on: Mus musculus; assay: Hypnotic activity in ip dosed C57BL/6 mouse assessed as increase in immobility time; assay type: functional, organism-based
[17] = tested on: HEK293T; assay: Agonist activity at alpha2A-adrenoceptor F427A mutant (unknown origin) expressed in HEK293T cells co-expressing pGloSensor-22F cAMP plasmid assessed as at 1 to 100 uM measured after 10 mins incubation by multiplate reader; assay type: cell-based; details: Homo sapiens, filed as agonist, dose 1-100 µM
[18] = tested on: Mus musculus; assay: Hypnotic activity in C57BL/6 mouse assessed as increase in loss of righting reflex (LORR) in presence of ARC239 alpha2B-adrenoceptor antagonist at 0.60 mg/kg, ip; assay type: functional, organism-based; details: dose 0.6 mg/kg
[19] = tested on: Mus musculus; assay: Hypnotic activity in C57BL/6 mouse assessed as increase in induction time righting reflex (LORR) in presence of atipamezole alpha2-adrenoceptor antagonist at 0.60 mg/kg, ip; assay type: functional, organism-based; details: dose 0.6 mg/kg
[20] = tested on: HEK293T; assay: Agonist activity at alpha2A-adrenoceptor Y409A mutant (unknown origin) expressed in HEK293T cells co-expressing pGloSensor-22F cAMP plasmid assessed as at 0.000001 to 100 uM measured after 10 mins incubation by multiplate reader; assay type: cell-based; details: Homo sapiens, dose lower 1e-06 µM, dose upper 100.0 µM
[21] = tested on: HEK293T; assay: Agonist activity at alpha2A-adrenoceptor D128A mutant (unknown origin) expressed in HEK293T cells co-expressing pGloSensor-22F cAMP plasmid assessed as at 0.000001 to 100 uM measured after 10 mins incubation by multiplate reader; assay type: cell-based; details: Homo sapiens, dose lower 1e-06 µM, dose upper 100.0 µM
[22] = target: T8, Alpha-2A adrenergic receptor (Homo sapiens, UniProt P08913); assay: Agonist activity at human alpha2A adrenoceptor assessed as [35S]GTPgammaS binding by scintillation counting analysis; assay type: functional
T8 sequence (P08913 whole entry): T7 sequence (P08913 whole entry)

Which results are given for Cc1cccc([C@H](C)c2cnc[nH]2)c1C [DEXMEDETOMIDINE]?
Ki [1]: 1230 nM; EC50 [2]: 5.37 nM; half-life [3]: 2.6 h; EC50 [4]: 3.31 nM; Ki [5]: 1320 nM; microsomal CLint [6]: 8.89 µL/min/mg; Ki [7]: 9120 nM; EC50 [8]: 28.8 nM; EC50 [9]: 13 nM; EC50 [10]: 1.91 nM

Which pKi [11] does the source give for Cc1cccc2c1CCC2c1c[nH]cn1 (configuration not stated) here?
The pKi was 7.14.

And the pKi [12]?
The pKi was 8.06.

What does the source list for Brc1cccc2c1OCCC2c1c[nH]cn1 (configuration not stated)?
Activity [13]: inactive; EC50 [2]: 21.3 nM; Activity [14]: Active; Activity [15]: inactive; half-life [3]: 0.797 h; Activity [16]: Dose-Dependent Effect; microsomal CLint [6]: 29 µL/min/mg; Activity [17]: Active; Activity [18]: Active; Activity [19]: inactive; Activity [20]: inactive; Activity [21]: inactive; EC50 [9]: 2.55 nM; EC50 [10]: 163 nM

With CC(c1cccc(C2(C(F)(F)F)N=N2)c1)c1c[nH]cn1 (configuration not stated) as the molecule, how does the pEC50 [22] read?
Its pEC50 is 6.53.
